# Test results as given in patent publication US10329270B2, “Heteroaryl compounds as BTK inhibitors and uses thereof” (Merck Patent GmbH, priority 2013, dated 2019).
# Counter-ions that a name gives are not always drawn.
# Target: T1, full-length human BTK (Homo sapiens, UniProt Q06187)
# T1 construct: 2.5× stocks of full-length human BTK (08-080); purchased CarnaBio USA, Inc., Natick, Mass; 08-080
# Test: Assay A: BTK IC50 Enzyme Assay (microfluidic off-chip mobility shift kinase assay)
# Type: biochemical
# Details: full-length human BTK, kinKDR peptide substrate, incubated 90 min at 27 C; read-out: Assay A (Time Dependent BTK Enzyme Assay IC50)
# Protocol: Assay A: BTK IC50 Enzyme Assay
# The following describes a microfluidic, off-chip mobility shift kinase assay used to measure inherent potency of compounds against BTK enzyme. Compounds described by embodiments of the present invention were assayed using this protocol and the data from the same is recorded in Table 2 within the column labeled: “Time Dependent BTK Enzyme Assay IC50”.
# Stopped reactions were monitored at −2 PSI, −3000 V/−700 V in a LabChip 3000 plate reader from Caliper Life Sciences, a PerkinElmer Company (Hopkinton, Mass.), and the activity was measured by off-chip mobility shift assay measuring the charge/mass difference between substrate and product resulting from peptide phosphorilation. IC50 and efficacy were determined by plotting log [Inhibitor] vs. % Activity in GeneData Screener (Basel, Switzerland). […] I<1 uM and II>1 uM.
# T1 sequence (Q06187 whole entry): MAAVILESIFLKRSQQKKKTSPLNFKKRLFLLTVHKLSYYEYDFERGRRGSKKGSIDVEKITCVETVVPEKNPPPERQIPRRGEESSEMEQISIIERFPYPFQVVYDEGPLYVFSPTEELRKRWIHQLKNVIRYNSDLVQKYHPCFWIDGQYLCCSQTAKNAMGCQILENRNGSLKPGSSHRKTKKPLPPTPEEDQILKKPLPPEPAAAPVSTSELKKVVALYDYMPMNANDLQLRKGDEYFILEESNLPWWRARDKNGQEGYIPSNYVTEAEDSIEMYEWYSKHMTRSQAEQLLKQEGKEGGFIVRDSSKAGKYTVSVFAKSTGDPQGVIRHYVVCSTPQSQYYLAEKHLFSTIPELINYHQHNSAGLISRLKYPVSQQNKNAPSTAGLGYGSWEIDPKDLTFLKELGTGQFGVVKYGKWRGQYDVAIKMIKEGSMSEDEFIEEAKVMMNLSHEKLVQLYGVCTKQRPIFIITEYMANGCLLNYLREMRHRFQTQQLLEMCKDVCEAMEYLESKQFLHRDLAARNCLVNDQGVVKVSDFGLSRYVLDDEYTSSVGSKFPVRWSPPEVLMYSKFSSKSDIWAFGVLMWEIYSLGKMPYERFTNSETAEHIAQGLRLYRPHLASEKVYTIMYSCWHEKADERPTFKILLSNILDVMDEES
row,Structure (SMILES),IC50 [nM]
1,"C=CC(=O)N1CCC(Nc2ncc(C(N)=O)c(N)n2)C1 (stereo not shown) [Compound 141, 2-(1-Acryloyl-pyrrolidin-3-ylamino)-4-amino-pyrimidine-5-carboxylic acid amide]",100 to 1000
2,"C=CC(=O)N1CC2CN(c3cnc(Oc4ccc(Oc5cccc(F)c5)cc4)c(C(N)=O)c3)CC2C1 (stereo not shown) [Compound 238, 5-(5-Acryloyl-hexahydro-pyrrolo[3,4-c]pyrrol-2-yl)-2-[4-(3-fluoro-phenoxy)-phenoxy]-nicotinamide]",100 to 1000
3,"C=CC(=O)N[C@H]1CCN(c2cc(Oc3ccc(Oc4ccccc4)cc3)c(C(N)=O)cn2)C1 [Compound 109, 6-((S)-3-Acryloylamino-pyrrolidin-1-yl)-4-(4-phenoxy-phenoxy)-nicotinamide]",< 100
4,"C=CC(=O)N1C[C@@H]2C[C@H]1CN2c1ccc(C(N)=O)c(Nc2cccnc2)n1 [Compound 15, 6-((1S,4S)-5-acryloyl-2,5-diazabicyclo[2.2.1]heptan-2-yl)-2-(pyridin-3-ylamino)nicotinamide]",< 100
5,"N#CN1CCC(c2cnc(Oc3ccc(Oc4ccccc4)cc3)c(C(N)=O)c2)C1 (stereo not shown) [Compound 245, 5-(1-cyanopyrrolidin-3-yl)-2-(4-phenoxyphenoxy)pyridine-3-carboxamide]",1000 to 5000
6,"C=CC(=O)N[C@H]1CCN(c2ccc(C(N)=O)c(Nc3ccc(NC(=O)C(C)(C)C)cc3)n2)C1 [Compound 59, 6-((S)-3-Acryloylamino-pyrrolidin-1-yl)-2-[4-(2,2-dimethyl-propionylamino)-phenylamino]-nicotinamide]",100 to 1000
7,C=CC(=O)N1CCC(c2cnc(C(N)=O)nc2)CC1 [Compound 153],> 5000
8,"N#CN1CCC[C@H](c2cnc(Oc3ccc(Oc4ccc(F)cc4F)cc3)c(C(N)=O)c2)C1 [Compound 248, 5-[(3R)-1-cyanopiperidin-3-yl]-2-[4-(2,4-difluorophenoxy)phenoxy]pyridine-3-carboxamide]",1000 to 5000
9,"C=CC(=O)N1CCC(c2cnc(Oc3ccc(Oc4ccccc4)cc3)c(C(N)=O)c2)CC1 [Compound 127, 1′-Acryloyl-6-(4-phenoxy-phenoxy)-1′,2′,3′,4′,5′,6′-hexahydro-[3,4′]bipyridinyl-5-carboxylic acid amide]",100 to 1000
10,"C=CC(=O)N[C@H]1CCN(c2ccc(C(N)=O)c(Oc3ccc(NC(=O)c4ccccc4)cc3)n2)C1 [Compound 95, (S)-6-(3-acrylamidopyrrolidin-1-yl)-2-(4-benzamidophenoxy)nicotinamide]",100 to 1000
11,"C=CC(=O)N1C[C@@H]2C[C@H]1CN2c1ccc(C(N)=O)c(Oc2ccc(Oc3ccc(F)cc3F)cc2)n1 [Compound 66, 6-((1S,4S)-5-Acryloyl-2,5-diaza-bicyclo[2.2.1]hept-2-yl)-2-[4-(2,4-difluoro-phenoxy)-phenoxy]-nicotinamide]",< 100
12,"C=CC(=O)N1CCC(Nc2cnc(Oc3ccc(Oc4ccccc4)cc3)c(C(N)=O)c2)C1 (stereo not shown) [Compound 201, 5-(1-Acryloyl-pyrrolidin-3-ylamino)-2-(4-phenoxy-phenoxy)-nicotinamide]",< 100
13,"C=CC(=O)N1CCC(c2ncc(C(N)=O)c(Oc3ccc(Oc4ccccc4)cc3)n2)C1 (stereo not shown) [Compound 150, 2-(1-Acryloyl-pyrrolidin-3-yl)-4-(4-phenoxy-phenoxy)-pyrimidine-5-carboxylic acid amide]",100 to 1000
14,"C=CC(=O)N[C@H]1CCN(c2ccc(C(N)=O)c(Oc3ccc(Oc4cccc(C#N)c4)cc3)n2)C1 [Compound 79, (S)-6-(3-acrylamidopyrrolidin-1-yl)-2-(4-(3-cyanophenoxy)phenoxy)nicotinamide]",< 100
15,"C=CC(=O)N1CCC(c2ccc(C(N)=O)c(Nc3ccc(C(=O)N4CCN(C(=O)CCCCN)CC4)cc3)n2)CC1 [Compound 29, 1′-Acryloyl-6-{4-[4-(5-amino-pentanoyl)-piperazine-1-carbonyl]-phenylamino}-1′,2′,3′,4′,5′,6′-hexahydro-[2,4′]bipyridinyl-5-carboxylic acid amide hydrochloride]",< 100
16,"C=CC(=O)N[C@H]1CCN(c2ccc(C(N)=O)c(Nc3ccc(N4CC(C)OC(C)C4)c(F)c3)n2)C1 (stereo partly drawn) [Compound 27, 6-((S)-3-Acryloylamino-pyrrolidin-1-yl)-2-[4-(2,6-dimethyl-morpholin-4-yl)-3-fluoro-phenylamino]-nicotinamide]",< 100
17,C=CC(=O)N1CCC(c2ccc(C(N)=O)c(Nc3ccc(C)nc3)n2)CC1 [Compound 49],< 100
18,"C/C=C/C(=O)N1CCC(Nc2cnc(Oc3ccc(Oc4ccccc4)cc3)c(C(N)=O)c2)CC1 [Compound 234, 5-[1-((E)-But-2-enoyl)-piperidin-4-ylamino]-2-(4-phenoxy-phenoxy)-nicotinamide]",1000 to 5000
19,"C=CC(=O)N1CCC=C(c2cnc(Oc3ccc(Oc4ccccc4)cc3)c(C(N)=O)c2)C1 [Compound 123, 1′-Acryloyl-6-(4-phenoxy-phenoxy)-1′,2′,5′,6′-tetrahydro-[3,3′]bipyridinyl-5-carboxylic acid amide]",< 100

row,Structure (SMILES),IC50 [nM]
1,"CC(C)=CC(=O)C1CCN(c2ccc(C(N)=O)c(Oc3ccc(Oc4ccccc4)cc3)n2)C1 (stereo not shown) [Compound 93, 6-[3-(3-Methyl-but-2-enoyl)-pyrrolidin-1-yl]-2-(4-phenoxy-phenoxy)-nicotinamide]",100 to 1000
2,"C=CC(=O)N[C@H]1CCN(c2ccc(C(N)=O)c(Nc3ccc(F)c(C)c3)n2)C1 [Compound 60, 6-((S)-3-Acryloylamino-pyrrolidin-1-yl)-2-(4-fluoro-3-methyl-phenylamino)-nicotinamide]",100 to 1000
3,"C=CC(=O)N[C@H]1CCN(c2ccc(C(N)=O)c(Nc3cccnc3)n2)C1 [Compound 52, 6-((S)-3-Acryloylamino-pyrrolidin-1-yl)-2-(pyridin-3-ylamino)-nicotinamide]",< 100
4,"C/C=C/C(=O)NC1CCN(c2cnc(Oc3ccc(Oc4ccccc4)cc3)c(C(N)=O)c2)C1 (stereo not shown) [Compound 199, 5-[3-((E)-But-2-enoylamino)-pyrrolidin-1-yl]-2-(4-phenoxy-phenoxy)-nicotinamide]",> 5000
5,"C/C=C/C(=O)N1CC2CN(c3cnc(Oc4ccc(Oc5cccc(F)c5)cc4)c(C(N)=O)c3)CC2C1 (stereo not shown) [Compound 235, 5-[5-((E)-But-2-enoyl)-hexahydro-pyrrolo[3,4-c]pyrrol-2-yl]-2-[4-(3-fluoro-phenoxy)-phenoxy]-nicotinamide]",> 5000
6,"CN(C)C/C=C/C(=O)N1CCC(Nc2ncc(C(N)=O)c(N)n2)C1 (stereo not shown) [Compound 138, 4-Amino-2-[1-((E)-4-dimethylamino-but-2-enoyl)-pyrrolidin-3-ylamino]-pyrimidine-5-carboxylic acid amide]",> 5000
7,"C=CC(=O)N[C@H]1C[C@@H](Nc2ncc(C(N)=O)c(N)n2)C1 [Compound 143, 2-(3-Acryloylamino-cyclobutylamino)-4-amino-pyrimidine-5-carboxylic acid amide]",100 to 1000
8,"C=CC(=O)NC1CC2(C1)CC(Nc1ncc(C(N)=O)c(Oc3ccc(Oc4ccccc4)cc3)n1)C2 (stereo not shown) [Compound 195, 2-((6-acrylamidospiro[3.3]heptan-2-yl)amino)-4-(4-phenoxyphenoxy)pyrimidine-5-carboxamide]",1000 to 5000
9,"C=CC(=O)N1CCC(c2cc(Oc3ccc(Oc4ccc(C)cc4)cc3)c(C(N)=O)cn2)C1 (stereo not shown) [Compound 110, 6-(1-acryloylpyrrolidin-3-yl)-4-(4-(p-tolyloxy)phenoxy)nicotinamide]",< 100
10,"C=CC(=O)N1CC=C(c2cncc(C(N)=O)c2Nc2ccc(C(=O)N3CCCCC3)cc2)CC1 [Compound 169, 1′-Acryloyl-4-[4-(piperidine-1-carbonyl)-phenylamino]-1′,2′,3′,6′-tetrahydro-[3,4′]bipyridinyl-5-carboxylic acid amide]",1000 to 5000
11,"N#CN1CCC(c2cnc(Oc3ccc(Oc4ccccc4)cc3)c(C(N)=O)c2)CC1 [Compound 244, 5-(1-cyanopiperidin-4-yl)-2-(4-phenoxyphenoxy)pyridine-3-carboxamide]",1000 to 5000
12,"C=CC(=O)N1CCC(Nc2ccc(C(N)=O)c(Nc3cccc(C)c3)n2)C1 (stereo not shown) [Compound 50, 6-(1-Acryloyl-pyrrolidin-3-ylamino)-2-m-tolylamino-nicotinamide]",< 100
13,"C=CC(=O)N[C@H]1CCN(c2nc(Nc3ccc(C(=O)NC(C)(C)C)cc3)c(C(N)=O)cc2F)C1 [Compound 5, 6-((S)-3-Acryloylamino-pyrrolidin-1-yl)-2-(4-tert-butylcarbamoyl-phenylamino)-5-fluoro-nicotinamide]",100 to 1000
14,"C=CC(=O)NCc1cncc(-c2ccc(C(N)=O)c(Oc3ccc(Oc4ccccc4)cc3)n2)c1 [Compound 84, 5′-(acrylamidomethyl)-6-(4-phenoxyphenoxy)-[2,3′-bipyridine]-5-carboxamide]",< 100
15,"C/C=C/C(=O)NC1CCCN(c2cnc(Oc3ccc(Oc4cccc(F)c4)cc3)c(C(N)=O)c2)C1 (stereo not shown) [Compound 222, 3-((E)-But-2-enoylamino)-6′-[4-(3-fluoro-phenoxy)-phenoxy]-3,4,5,6-tetrahydro-2H-[1,3′]bipyridinyl-5′-carboxylic acid amide]",> 5000
16,C=CC(=O)N1CCC(c2cnc(C(N)=O)nc2)C1 (stereo not shown) [Compound 155],> 5000
17,"C=CC(=O)N1CC2CCC1CN2c1ncc(C(N)=O)c(Oc2ccc(Oc3ccccc3)cc2)n1 (stereo not shown) [Compound 225, 2-(5-acryloyl-2,5-diazabicyclo[2.2.2]octan-2-yl)-4-(4-phenoxyphenoxy)pyrimidine-5-carboxamide]",< 100
18,"C=CC(=O)N[C@H]1CCN(c2ccc(C(N)=O)c(Nc3ccc(C(=O)N4CCOCC4)cc3)n2)C1 [Compound 35, 6-((S)-3-Acryloylamino-pyrrolidin-1-yl)-2-[4-(morpholine-4-carbonyl)-phenylamino]-nicotinamide]",< 100
